In the experiment the test system is HSP 70. The experiment is described as follows: Production of stress protein HSP 70 (RNAm by RT-PCR, band intensity vs β-actine) in cutaneous cell cultures. Format: cell-based, human. As to conditions: tested at 1.5 g/l. The procedure: 1st test with thermal treatment:
At J0, cutaneous cells, fibroblasts and/or keratinocytes are seeded.
At J4, 3% of active principle was added and after an incubation of 30 minutes thermal treatment is carried out for 1 hour at 39° C.
The positive specimen is treated for 1 hour at 44° C.
The total RNA is extracted. The RNA is reverse-transcripted and the complementary DNA is analyzed by using complementary oligonucleotides of a sequence coding the genes and proteins studied.
The RNAm of β-actine is analyzed for each experimental condition.
By image analysis, using for example the system sold under the name BIO-PROFIL, the band intensities are determined.
2nd test without thermal treatment:
At J3, 3% of active principle is added and left to incubate for 24 hours at 37° C.
At J4, at the end of this incubation, the cells are recovered.
The total RNA is extracted. The RNA is reverse-transcripted and the complementary DNA is analyzed by using complementary oligonucleotides of a sequence coding the genes and proteins used. The RNAm of p-actine is analyzed for each experimental condition.
Similarly to the above, by image analysis, the intensities of the bands are determined. […]
The results of the thermal treatments of the standard are indicated in the table in FIG. 1, taking as 100% the quantity of RNAm of HSP 70 after incubation at 37° C. of a standard specimen

Regarding `OCCc1ccc(O)c(O)c1` [Dihydroxytyrosol], the “effect on the synthesis of HSP 70 on fibroblasts, result in words” value is “very active”.

Regarding `C/C=C1/[C@H](O[C@@H]2O[C@H](CO)[C@@H](O)[C@H](O)[C@H]2O)OC=C(C(=O)OC)[C@H]1CC(=O)OCCc1ccc(O)c(O)c1` [Oleuropeine], the “effect on the synthesis of HSP 70 on fibroblasts, result in words” value is recorded as “very active”.

For the origin of these results see patent publication US20020054927A1, “Process for the extraction of an active principle from leaves of Olea Europaea to promote the synthesis of stress proteins, obtained active principle” (priority 2000, published 2002).
